{"source": "patent US10695341B2", "about": "“Compositions and methods for treating endometriosis” (UNIVERSITY OF SOUTH FLORIDA, priority 2014, dated 2020)", "key": {"LC3B-II": {"test_system": "LC3B-II", "assay": "Western blot for LC3B, life-extended human endometriotic cells, HCQ", "assay_type": "cell-based", "conditions": "25 μM HCQ, 18 hours"}, "peritoneal macrophages": {"test_system": "peritoneal macrophages", "assay": "Peritoneal macrophage flow cytometry (CD11b, F4/80)", "assay_type": "in vivo, mouse", "conditions": "HCQ-treated vs PBS-treated mice, p=0.0079", "experimental": "The pellet obtained after centrifugation of the peritoneal fluid wash (see above) was utilized for macrophage staining. When necessary, red blood cell lysis was performed according to the manufacturer's protocol (eBioscience, San Diego, Calif.). The cell pellets were resuspended in 1 ml cold PBS and transferred to flow cytometry tubes. Samples were centrifuged for 1 min at 1,390 rpm. The supernatant was decanted and cells were resuspended in 100 μl of PBS. Cells were blocked using 0.5 μg of Mouse BD Fc, Block™ (#553141, BD Pharmingen, San Jose, Calif.) for 5 min on ice. The cells were incubated in 0.4 μg of APC Rat anti-mouse CD11b clone M1/70 (#553312, BD Pharmingen, San Jose, Calif.) and anti mPE-F4/80/EMR1 (# FAB5580C, R&D Systems, Minneapolis, Minn.)) at room temperature for 30 min, protected from light. After incubation, 700 μl of PBS was added to each tube and centrifuged for 1 min at 4° C. The supernatant was decanted, and the cells were resuspended in 300 μl in PBS and analyzed by flow cytometry."}, "ATG5 and ATG3 mRNA": {"test_system": "ATG5 and ATG3 mRNA", "assay": "Real-time PCR of autophagic mediators in lesions", "assay_type": "in vivo, C57BL/6 mice", "conditions": "lesions of HCQ-treated vs PBS-treated mice", "experimental": "Total RNA was isolated using the RNeasy kit following the manufacturer's instructions (QIAGEN, Valencia, Calif.). RNA concentration and purity was determined using a 1000 NanoDrop (Thermo Scientific, Pittsburgh, Pa.). Lesion mass varied by samples, and this was reflected in the RNA amounts obtained (range of mass: 0.9 mg to 25 mg). Three RNA samples from uterine horns, having a 260/280 ratio higher than 1.8 and a 260/230 ratio higher than 1.7, were selected from recipient, donor, HCQ-treated, and PBS-treated animals (12 samples in total) for RT2-PCR analyses. Synthesis of cDNA was performed using 0.5 μg of total RNA, after DNA elimination step using the RT2 First Strand kit per manufacturer instructions (QIAGEN, Valencia, Calif.). After DNA elimination, the reaction mix was incubated at 42° C. for 15 min, followed by 95° C. for 5 min using a DNA Engine® Peltier Thermal cycler (Bio-Rad, Hercules, Calif.). A total of 102 μl of the cDNA reaction mix was added to the master mix containing 1,248 μl of RNAse-free water and 1,350 μl of 2× RT2 SYBR green master mix. Twenty-five μl of the master mix were carefully added to each well of the RT2 profiler PCR autophagy array. Quantification was performed using the Applied Biosystems cycler (Life Technologies, Grand Island, N.Y.). […] The PCR cycling program finalized with a melt curve analysis and data was analyzed using the QIAGEN web-based software."}, "endometriotic lesions": {"test_system": "endometriotic lesions", "assay": "Immunohistochemistry of lesions (CK8, ERα, PR)", "assay_type": "in vivo, mouse", "conditions": "PR immunohistochemical staining, lesions from HCQ-treated mice", "experimental": "Collected samples were immediately preserved in 10% neutral buffered formalin at the animal facility. Samples were embedded in paraffin, sectioned, and transferred to slides for hematoxylin/eosin and immunohistochemical staining. A pathologist reviewed each case and delimited the region of interest, containing epithelial and stromal cells, for each specimen. A mouse tissue microarray was prepared at the Tissue Core Facility at the Moffitt Cancer Center. The mouse tissue microarray contained a total of 113 core samples, which included 10 uterine horns and 10 ovaries from both PBS and HCQ treated mice. As control specimens for the utilized antibodies, the TMA included mouse mammary tissue, liver, small intestine, and lymph nodes from a PBS treated mouse. Lesions were analyzed from independent blocks. Slides were stained using a Leica Bond RX automated system (Leica Biosytems, Buffalo Grove, Ill.) following manufacturers instructions with proprietary reagents. Slides were deparaffinized on an automated system with Dewax Solution (Leica Biosystems). […]"}}, "data": [{"smiles": "CCN(CCO)CCCC(C)Nc1ccnc2cc(Cl)ccc12", "note": "(centres unmarked) [HCQ, hydroxychloroquine]", "values": [{"measurement": "LC3B-II protein (western blot)", "setting": "LC3B-II", "value": "increased"}, {"measurement": "macrophage numbers in peritoneal cavity", "setting": "peritoneal macrophages", "value": "significant increase"}, {"measurement": "ATG3 mRNA in lesions", "setting": "ATG5 and ATG3 mRNA; p=0.0248", "value": "significant increase"}, {"measurement": "ATG5 mRNA in lesions", "setting": "ATG5 and ATG3 mRNA; p=0.0499", "value": "significant increase"}, {"measurement": "stained lesions with absence of glandular components", "setting": "endometriotic lesions", "value": "four out of the seven"}]}]}
